Assay results: patent US20220354807A1, “USE OF VALERIC ACID DERIVATIVE IN TREATMENT OF DOWN'S SYNDROME” (XIAMEN UNIVERSITY, priority 2019, published 2022)

Legend:
[1] = tested on: Down's model mice Ts65Dn; assay: Morris water maze test, Ts65Dn; format: in vivo; settings: 50 mg/(kg body weight/day) i.p., 21 days
Text: (§1) After 21 days of continuous administration, 3-month-old male mice were subjected to the Morris water maze test. (A) The latency for the mice to reach the platform during the 6-day water maze hidden platform training. (B) The average speed of swimming for the mice in the water maze of the platform test on day 7. (C) The latency for the mice to reach the area where the platform is located for the first time in the platform test on day 7. (D) The number of times for which the mice shuttled in the area where the platform is located in the platform test on day 7. (E) The swimming trajectory for the mice in the platform test on day 7. […] The ns represents no significant difference, i.e., p>0.05, ** represents p<0.01, *** represents p<0.001, **** represents p<0.0001.
(§2) After continuous administration for 21 days, learning and memory related animal behavior test Morris water maze test was performed. Smart Video Tracking Software (Panlab, Harvard Apparatus) was used for data acquisition and analysis. The Morris water maze is a circular water tank with a diameter of 90 cm, a height of 35 cm, and a water depth of 30 cm. The water temperature was maintained at 22° C. Different markers were placed in the visual field of mice (pool wall), and four water entry points (E, S, W, N) were marked on the pool wall so that the maze was divided into four quadrants. A platform with a diameter of 6 cm was installed in the ES quadrant, so that the water surface was 1 cm higher than the platform. Mice were trained twice a day and put into the water from E, S, W and N entry points facing the wall of the pool, respectively. The movement trajectory of the mice was captured by a camera, and the time from entering the water to climbing up the platform was recorded, that is, Escape latency. The system set a test time of 60 seconds, and the system automatically shut down after the mice climbed on the platform and stay for 10 seconds. […] The positioning navigation experiment last for 6 days, and on day 7, the platform was removed. Mice were placed on the opposite side of the platform to the wall of the pool, and the space exploration experiment was carried out. The number of times of crossing in the original platform area (Target crossing) and the Latency of 1st entrance to target were recorded.

[2] = tested on: Down's model mice Ts65Dn; assay: Synapse number by transmission electron microscopy; format: in vivo; settings: 50 mg/(kg body weight/day) i.p., 21 days
Text: (A) A representative image of a transmission electron micrograph. Arrows indicate synaptic structures, and the scale is 1 m. (B) Statistics result of the number of synapses. (C) Statistics result of the number of presynaptic vesicles. (D) statistical result of the length of postsynaptic density (PSD). (E) Statistical results of the area of postsynaptic density (PSD). Data represents the mean±standard error (SEM) and is statistically analyzed using One-way ANOVA, with 4 mice in each group, and 38-42 fields of view are statistically analyzed respectively. The ns represents no significant difference, i.e., p>0.05, * represents p<0.05.
[…] The pieces were fixed with pre-cooled, fresh 2.5% glutaraldehyde fixative at 4° C. for more than 4 hours. At the end of fixation, the pieces were washed with PBS for 15 min for three times, then dehydrated, sectioned and prepared, and finally the images are collected by transmission electron microscopy.

[3] = Body weight after 21 days of administration; format: in vivo; settings: WT and Ts65Dn mice, 50 mg/(kg body weight/day) i.p.
Experimental: All of the used mice were 3-month-old male mice administered continuously for 21 days, and then weighed.
The mice were administered continuously for 21 days and then weighed.

[4] = cited from earlier work
[5] = tested on: primary microglia of Dp16 mice; assay: Phagocytosis of myelin debris by primary microglia; format: cell-based; settings: 0.6 mM, myelin debris added at 45 hours, staining at 48 hours
Text: (§3) (A) Representative images of immunofluorescence labeled microglia marker Iba1, nuclear dye DAPI and myelin sheath debris (pHrodo is pre-labeled on myelin sheath), and the scale is 20 m. (B) Statistics of fluorescence intensity of myelin sheath debris in each Iba1-positive cell. Data represents the mean±standard error (SEM) and is statistically analyzed using One-way ANOVA. The ns represents no significant difference, i.e., p>0.05, ** represents p<0.01, *** represents p<0.001, **** represents p<0.0001.
(§4) Newborn wild-type (WT) mice and Dp16 Down's model mice were placed on ice for 5 min, immersed in pre-cooled 75% alcohol for 10 s, decapitated and stripped of the skull, and the whole brain was removed and placed in pre-cooled HBSS. Under a stereoscope, the vascular membrane of brain tissue was stripped and cut into pieces with tweezers, repeatedly blown and beaten evenly with a 5 ml pipette tip, resuspended in precooled HBSS, and screened with a 100-mesh cell sieve to remove cell debris. […] The cells were resuspended and counted. […] Myelin debris (1.2 μg/L) were added at 45 hours, and immunofluorescence staining was performed at 48 hours to label microglia marker Iba1, nuclear dye DAPI and myelin debris (pHrodo was labeled on the myelin sheath in advance), respectively, and then images were collected by laser confocal fluorescence microscopy.

[6] = tested on: primary microglia of Dp16 mice; assay: Phagocytosis of fluorescent spheres by primary microglia; format: cell-based; settings: 0.6 mM, fluorescent spheres added at 45th hour, staining at 48th hour
Text: as §3, with “fluorescent spheres,” for “myelin sheath debris (pHrodo is pre-labeled on myelin sheath),”, “10” for “20”, “fluorescent spheres” for “myelin sheath debris”, “p<0.01,” for “p<0.01, *** represents p<0.001,”
as §4, with “Fluorescent spheres (10000×, Fluoresbrite® microsphere)” for “Myelin debris (1.2 μg/L)”, “the 45th hour,” for “45 hours,”, “the 48th hour” for “48 hours”, “fluorescent spheres GFP,” for “myelin debris (pHrodo was labeled on the myelin sheath in advance),”

[7] = tested on: Alzheimer's disease mice; settings: by inhibiting the production of β-amyloid protein in the brain; cited from earlier work
[8] = tested on: Down's model mice Dp16; assay: Iba1/CD68 immunofluorescence of hippocampus (microglial phagocytic function), Dp16; format: in vivo; settings: 30 mg/(kg body weight/day) intragastric, 21 days
Text: (A) A representative map of immunofluorescence labeled microglia marker Iba1 and lysosomal phagocytosis marker CD68 in the region of mice hippocampus, and the scale is 50 m. (B) The statistical results of the proportion of Iba1-positive and CD68-positive cells in the total Iba1-positive cells in the mice hippocampus. Data represents the mean±standard error (SEM) and is statistically analyzed using One-way ANOVA, with 8 mice in each group. The ns represents no significant difference, i.e., p>0.05, *** represents p<0.001, **** represents p<0.0001.
The microglia marker Iba1 and lysosomal phagocytosis markers CD68 were respectively labeled by immunofluorescence staining, and then the images were collected by laser confocal fluorescence microscopy.

[9] = tested on: Down's model mice Dp16; assay: Iba1 immunofluorescence of hippocampus (microgliosis), Dp16; format: in vivo; settings: 30 mg/(kg body weight/day) intragastric, 21 days
Text: (§5) (A) A representative map of immunofluorescence labeled microglia marker Iba1 in the DG region of mice hippocampus, and the scale is 100 m. (B) Statistical results of Iba1 positive cells in mice hippocampus. Data represents the mean±standard error (SEM) and is statistically analyzed using One-way ANOVA, with 8 mice in each group. **** represents p<0.0001.
(§6) The microglia marker Iba1 and nuclear dye DAPI were respectively labeled by immunofluorescence staining, and then the images were collected by laser confocal fluorescence microscopy.

[10] = Open-field test; format: in vivo, mice; settings: 50 mg/(kg body weight/day) i.p., 21 days, open field 10 minutes
Experimental: After 21 days of continuous administration, 3-month-old male mice were subjected to the behavioral open-field test. (A) Average movement speed of mice in the open field. (B) Total movement distance of mice in the open field. (C) Total time for the mice moving in the center of the open field.
After continuous administration for 21 days, the animal behavior test was performed, in which the open-field test is a behavioral paradigm for evaluating the exercise ability and anxiety of experimental animals. In the open-field test, mice were placed in the center of the open field box (40 cm (L)×40 cm (W)×40 cm (H)), and Smart Video Tracking Software (Panlab, Harvard Apparatus) was used for data acquisition and analysis. Mice were allowed to explore freely in the open field for 10 minutes, and the Mean speed, Total distance and Time in center of mice were recorded.

[11] = tested on: Down's model mice Ts65Dn; assay: LTP recording in brain slices (Schaffer collateral pathway CA3 to CA1); format: in vivo; settings: 50 mg/(kg body weight/day) i.p., 21 days
Experimental: After 21 days of continuous administration, electrophysiological studies on brain slice were performed. After anesthesia, the mice were incubated in an ice-cooled artificial cerebrospinal fluid (ACSF) with oxygen. After slicing, the brain slices were incubated in ACSF saturated with oxygen at 32° C. for 1 H. The recording electrode was placed in the radiation layer of CA1 area of Schaffer collateral pathway, and the stimulating electrode was placed in CA3 area. Stimulation intensity was 30% of the maximum value of fEPSP. After the stable baseline of fEPSP was recorded for 20 mins, LTP was induced by high frequency stimulation (HFS) (2 strings of stimulation, each of which contained 100 stimulation pulses, and was separated by 30 seconds) and recorded for 60 mins.

[12] = 50 mg/(kg body weight/day) i.p., 21 days, plasma
[13] = tested on: Down's model mice Ts65Dn; assay: Iba1 immunofluorescence of hippocampus (microgliosis), Ts65Dn; format: in vivo; settings: 50 mg/(kg body weight/day) i.p., 21 days
Text: as §5, with “75” for “100”, “4” for “8”, “**” for “****”, “p<0.01 and *** represents p<0.001.” for “p<0.0001.”
as §6

[14] = tested on: Down's model mice Dp16; assay: Morris water maze test, Dp16; format: in vivo; settings: 30 mg/(kg body weight/day) intragastric, 21 days
Text: as §1, with “p>0.05, * represents p<0.05,” for “p>0.05,”, “p<0.001.” for “p<0.001, **** represents p<0.0001.”
as §2, with “The” for “The positioning navigation experiment last for 6 days, and on day 7, the platform was removed. Mice were placed on the opposite side of the platform to the wall of the pool, and the space exploration experiment was carried out. The”, “recorded. […]” for “recorded.”

In the case of CCCC(CCC)C(=O)O [VPA, sodium valproate], the “Latency of 1st entrance to target, day 7” value [1] is reported as “reduces”, the “latency to search the platform (Escape latency), first 6 days of training” value [1] is reported as “significantly reduce” and the “number of times the mouse shuttled the area where the platform was located (Target crossing), day 7” value [1] is reported as “significantly increases”. For the same compound, the “spatial learning and memory deficits” value [1] was “significantly reverse”, the “number of synapses in the hippocampal neurons” value [2] was “significantly increases” and the “body weight of mice” value [3] was “does not affect”. The “binding to plasma proteins in blood” value ([4]; blood) was “mostly combined with plasma proteins”, the “absorption by oral administration” value ([4]; oral administration) was “absorbed rapidly and completely” and the “phagocytic function of myelin debris by primary microglia” value [5] was “significantly enhances”. For the same compound, the “phagocytic function of fluorescent spheres by primary microglia” value [6] was “significantly enhances”, the “cognitive function of Alzheimer's disease mice” value [7] was “reverse the cognitive function” and the “phagocytic function of hippocampal microglial cells (Iba1-positive and CD68-positive cells)” value [8] was “significantly enhances”. The “number of microglia in the hippocampus (Iba1 positive cells)” value [9] was “significantly reduces”, the “anxiety-related behaviors (Time in center)” value [10] was “do not show anxiety-related behaviors” and the “locomotor ability (Mean speed, Total distance)” value [10] was “no significant effects”. For the same compound, the “Long term potentiation (LTP) of Schaffer collateral pathway from hippocampal CA3 to CA1” value [11] was “significantly enhances”, the “toxic effects on mice (blood biochemical analysis)” value [12] was “no significant toxic effects” and the “number of microglia in the hippocampus (Iba1 positive cells)” value [13] was “significantly reduces”. The “Latency of 1st entrance to target, day 7” value [14] was “reduces”, the “number of times the mouse shuttled the area where the platform was located, day 7” value [14] was “significantly increases” and the “spatial learning and memory deficits” value [14] was “significantly reverse”.
